# According to patent publication US8957108B2, “Use of 5,6-dimethylxanthenone-4-acetic acid as an antiviral agent” (University of Maryland, Baltimore, priority 2006, dated 2015):
# Assays:
# Influenza/A/Wuhan = test: Assay of direct inhibition of viral infection (influenza, MDCK cells, CPE); type: cell-based; conditions: CPE of influenza virus on MDCK cells; read-out: IC50 direct antiviral activity
# Protocol: Influenza at 10^3 TCID50 was added in 50 μl volumes to all wells and incubated at room temperature for 1 h. The mixture was inoculated onto MDCK cells on 96-well plates. Tamiflu (1.75 mg/ml) and Relenza (0.5 mg/ml) were used as a positive control for the assay.
# peritoneal macrophages = test: Cytokine analysis of macrophage culture supernatants; type: cell-based, mouse; conditions: supernatants at 24 h
# MEFs = test: RANTES protein in MEF supernatants; type: cell-based, mouse; conditions: 24 h
# Protocol: IFN-β protein in cell culture supernatants was measured using a custom ELISA originally described in Weinstein, S. L. et al. (2000) “Phosphatidylinositol 3-Kinase And mTOR Mediate Lipopolysaccharide-Stimulated Nitric Oxide Production In Macrophages Via Interferon-Beta,” J. Leukocyte Biol. 67:405-414, with few modifications. […] Plates were blocked with 10% FCS in 1×PBS for 2 h at room temperature. Samples and a murine IFN-β standard (NIH, Bethesda, Md.) were added to wells and incubated overnight at 4° C. […] Wells were washed 3× followed by incubation with a 1:2000 dilution of goat anti-rabbit HRP (Cell Signaling Technologies, Beverly, Mass.) in 10% FCS-PBS for 1 h at room temperature. Plates were washed 3× and developed with TMB substrate (KPL, Gaithersburg, Md.). The reaction was stopped by addition of 1N H2SO4, and plates were read at 450 nm. RANTES and TNF-α were quantified using Luminex bead-based colorimetric assays. […] For stimulation of cells, poly(I:C) was mixed with Fugene 6 transfection reagent (Roche) at a ratio of 1:1 (volume:weight) in OptiMEM medium and incubated for 15 min prior to stimulation. Culture supernatants of cells (2×10^4) seeded on 96-well plates were collected after 24 h stimulation and analyzed for RANTES levels with ELISA. ELISA was performed according to the manufacturer's instructions (R&D Systems).
# [1] = test system: Francisella tularensis LVS; type: cell-based; conditions: Ft LVS-infected macrophages
# macrophages = test: Expression of LPS-inducible early genes and IFN production in macrophages; type: cell-based, mouse
# Source text: Because all of the cellular activities listed above can be performed by another ubiquitous yet structurally diverse compound, the lipopolysaccharide (LPS) of Gram-negative bacteria, the ability of DMXAA to modulate the expression of a subset of well-characterized LPS-inducible early genes in macrophages was studied in an effort to further elucidate the mechanism of DMXAA action. DMXAA's ability to induce IFN production by macrophages and to modulate the expression of the genes that encode transcription factors IRF-1, IRF-2, and ICSBP members of the interferon regulatory factor (IRF) gene family was also studied. […] These genes are: TNF-α, IL-1β, IP-10, Type 2 Tumor Necrosis Factor Receptor (TNFR-2), D3, and D8.
# murine colon tumors = conditions: mouse; cited from earlier work
# TBK1−/− MEFs = test: Quantitative real-time PCR in mouse embryonic fibroblasts; conditions: 2 h
compound,measurement,setting,value
"Cc1ccc2c(=O)c3cccc(CC(=O)O)c3oc2c1C [DMXAA, 5,6-dimethylxanthenone-4-acetic acid]",IC50,Influenza/A/Wuhan,5 µg/mL
same,RANTES production in IRF-3−/− macrophages,peritoneal macrophages,fail to produce RANTES
same,secretion of TNF-α in IRF-3-deficient macrophages,peritoneal macrophages,reduced to background levels
same,RANTES secretion in RIG-I−/− MEFs,MEFs,intact
same,induced RANTES in TRIF−/− MEFs,MEFs,unaffected by the absence of TRIF
same,RANTES response in MAVS-deficient MEFs,MEFs; MAVS+/+ and MAVS−/− MEFs,induces RANTES via a MAVS-independent pathway
same,time to reduce a bacterial burden compared with rIFN-β,[1],took longer
same,reduction of bacterial burden,"[1]; 100 μg/ml, within 24 hr",10 fold
same,TNF-α gene expression,macrophages,only low induction
same,"expression of the genes encoding IP-10, D8, and D3",macrophages,up-regulated to levels similar to those observed upon LPS induction
same,induction of TNFR-2 and IL-1β genes,macrophages,insignificant induction
same,induction of Type 1 Interferons (IFNs),macrophages; mouse macrophages,extremely potent inducer
same,potency in vivo against murine colon tumors relative to FAA,murine colon tumors,12 fold
same,RANTES mRNA in TBK1-deficient MEFs,TBK1−/− MEFs,fail to express
same,TNF-α mRNA in TBK1-deficient MEFs,TBK1−/− MEFs,fail to express
